In ChEMBL document CHEMBL1268952, “Design, synthesis, and evaluation of indolinones as inhibitors of the transforming growth factor β receptor I (TGFβRI)” (J Med Chem, 2010):

Tests used:
[1] = Inhibition of CK1 at 1 uM; values are per cent of control
[2] = target: Dual specificity mitogen-activated protein kinase kinase 2 (Homo sapiens) (UniProt P36507); test: Inhibition of MKK2 at 1 uM; values are per cent of control
[3] = target: Proto-oncogene tyrosine-protein kinase Src (Homo sapiens) (UniProt P12931); test: Inhibition of Src at 2 uM
[4] = target: T1, Serine/threonine-protein kinase Nek2 (Homo sapiens) (UniProt P51955); test: Inhibition of NEK2A at 1 uM; values are per cent of control
T1 sequence (whole entry): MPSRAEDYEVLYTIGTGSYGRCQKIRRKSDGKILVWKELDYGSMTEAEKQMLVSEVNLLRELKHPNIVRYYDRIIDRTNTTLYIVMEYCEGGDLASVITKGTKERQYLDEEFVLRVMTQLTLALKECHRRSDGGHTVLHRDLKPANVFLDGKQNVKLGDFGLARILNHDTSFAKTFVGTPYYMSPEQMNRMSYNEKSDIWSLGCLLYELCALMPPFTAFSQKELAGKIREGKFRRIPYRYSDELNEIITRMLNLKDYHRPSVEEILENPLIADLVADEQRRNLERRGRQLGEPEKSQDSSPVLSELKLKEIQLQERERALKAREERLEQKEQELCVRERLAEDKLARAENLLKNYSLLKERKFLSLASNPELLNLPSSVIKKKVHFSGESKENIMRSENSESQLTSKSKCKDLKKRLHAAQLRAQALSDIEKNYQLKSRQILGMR

HaCaT = test: Cytotoxicity against human HaCaT cells
[5] = target: Mitogen-activated protein kinase 12 (Homo sapiens) (UniProt P53778); test: Inhibition of p38-gamma at 1 uM; values are per cent of control
[6] = target: T2, Serine/threonine-protein kinase Sgk1 (Homo sapiens) (UniProt O00141); test: Inhibition of SGK at 1 uM; values are per cent of control
T2 sequence (whole entry): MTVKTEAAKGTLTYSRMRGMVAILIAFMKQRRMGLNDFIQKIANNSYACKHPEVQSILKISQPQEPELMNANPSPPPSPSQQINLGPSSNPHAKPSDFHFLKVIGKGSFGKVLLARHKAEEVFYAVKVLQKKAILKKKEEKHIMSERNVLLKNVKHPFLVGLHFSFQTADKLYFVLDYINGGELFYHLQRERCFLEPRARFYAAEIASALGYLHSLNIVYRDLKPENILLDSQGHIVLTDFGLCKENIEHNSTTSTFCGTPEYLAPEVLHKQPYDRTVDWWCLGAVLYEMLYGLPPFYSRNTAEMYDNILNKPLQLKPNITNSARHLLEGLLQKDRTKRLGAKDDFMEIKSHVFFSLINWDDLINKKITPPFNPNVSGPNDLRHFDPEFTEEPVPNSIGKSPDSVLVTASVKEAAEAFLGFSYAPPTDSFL

TGF-beta receptor type-2 = TGF-beta receptor type-2 (Homo sapiens, UniProt P37173); test: Inhibition of TGFbeta2 receptor
[7] = target: T3, Mitogen-activated protein kinase 13 (Homo sapiens) (UniProt O15264); test: Inhibition of p38delta at 1 uM; values are per cent of control
T3 sequence (whole entry): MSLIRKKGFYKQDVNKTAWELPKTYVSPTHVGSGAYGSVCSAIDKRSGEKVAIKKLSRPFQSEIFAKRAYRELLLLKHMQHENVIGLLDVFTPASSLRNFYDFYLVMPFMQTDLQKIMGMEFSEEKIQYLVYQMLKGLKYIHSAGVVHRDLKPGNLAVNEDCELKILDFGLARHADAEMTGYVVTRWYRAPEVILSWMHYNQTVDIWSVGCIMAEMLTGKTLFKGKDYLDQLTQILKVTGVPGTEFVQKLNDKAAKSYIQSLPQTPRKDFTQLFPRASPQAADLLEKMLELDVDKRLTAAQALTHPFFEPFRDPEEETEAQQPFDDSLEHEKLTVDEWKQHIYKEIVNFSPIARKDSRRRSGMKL

[8] = target: Mitogen-activated protein kinase 11 (Homo sapiens) (UniProt Q15759); test: Inhibition of p38beta2 at 1 uM; values are per cent of control
[9] = target: Bone morphogenetic protein receptor type-2 (Homo sapiens, UniProt Q13873); test: Inhibition of BMPR2
[10] = target: Platelet-derived growth factor receptor alpha (Homo sapiens, UniProt P16234); test: Inhibition of PDGFRalpha
TGF-beta receptor type-1 [11] = target: T4, TGF-beta receptor type-1 (Homo sapiens, UniProt P36897); test: Inhibition of TGFbeta receptor in human HaCaT cells assessed as Smad phosphorylation by ELISA; assay type: cell-based
T4 sequence (P36897 whole entry): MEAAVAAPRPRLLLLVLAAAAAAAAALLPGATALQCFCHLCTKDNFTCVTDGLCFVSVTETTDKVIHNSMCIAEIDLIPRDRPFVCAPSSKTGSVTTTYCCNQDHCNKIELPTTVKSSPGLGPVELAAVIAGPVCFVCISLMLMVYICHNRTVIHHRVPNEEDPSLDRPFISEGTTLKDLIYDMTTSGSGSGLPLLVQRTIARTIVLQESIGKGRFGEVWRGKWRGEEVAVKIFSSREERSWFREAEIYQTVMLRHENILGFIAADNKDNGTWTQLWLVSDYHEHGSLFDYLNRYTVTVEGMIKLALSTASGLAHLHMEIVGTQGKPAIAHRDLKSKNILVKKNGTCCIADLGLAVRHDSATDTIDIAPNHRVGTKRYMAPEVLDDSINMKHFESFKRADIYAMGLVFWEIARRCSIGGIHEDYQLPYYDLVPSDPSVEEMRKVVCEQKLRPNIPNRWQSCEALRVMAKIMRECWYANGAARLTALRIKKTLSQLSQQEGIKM

TGF-beta receptor type-1 [12] = target: T4, TGF-beta receptor type-1; test: Inhibition of TGFbeta receptor

Chain of Platelet-derived growth factor receptor alpha (P16234 whole entry): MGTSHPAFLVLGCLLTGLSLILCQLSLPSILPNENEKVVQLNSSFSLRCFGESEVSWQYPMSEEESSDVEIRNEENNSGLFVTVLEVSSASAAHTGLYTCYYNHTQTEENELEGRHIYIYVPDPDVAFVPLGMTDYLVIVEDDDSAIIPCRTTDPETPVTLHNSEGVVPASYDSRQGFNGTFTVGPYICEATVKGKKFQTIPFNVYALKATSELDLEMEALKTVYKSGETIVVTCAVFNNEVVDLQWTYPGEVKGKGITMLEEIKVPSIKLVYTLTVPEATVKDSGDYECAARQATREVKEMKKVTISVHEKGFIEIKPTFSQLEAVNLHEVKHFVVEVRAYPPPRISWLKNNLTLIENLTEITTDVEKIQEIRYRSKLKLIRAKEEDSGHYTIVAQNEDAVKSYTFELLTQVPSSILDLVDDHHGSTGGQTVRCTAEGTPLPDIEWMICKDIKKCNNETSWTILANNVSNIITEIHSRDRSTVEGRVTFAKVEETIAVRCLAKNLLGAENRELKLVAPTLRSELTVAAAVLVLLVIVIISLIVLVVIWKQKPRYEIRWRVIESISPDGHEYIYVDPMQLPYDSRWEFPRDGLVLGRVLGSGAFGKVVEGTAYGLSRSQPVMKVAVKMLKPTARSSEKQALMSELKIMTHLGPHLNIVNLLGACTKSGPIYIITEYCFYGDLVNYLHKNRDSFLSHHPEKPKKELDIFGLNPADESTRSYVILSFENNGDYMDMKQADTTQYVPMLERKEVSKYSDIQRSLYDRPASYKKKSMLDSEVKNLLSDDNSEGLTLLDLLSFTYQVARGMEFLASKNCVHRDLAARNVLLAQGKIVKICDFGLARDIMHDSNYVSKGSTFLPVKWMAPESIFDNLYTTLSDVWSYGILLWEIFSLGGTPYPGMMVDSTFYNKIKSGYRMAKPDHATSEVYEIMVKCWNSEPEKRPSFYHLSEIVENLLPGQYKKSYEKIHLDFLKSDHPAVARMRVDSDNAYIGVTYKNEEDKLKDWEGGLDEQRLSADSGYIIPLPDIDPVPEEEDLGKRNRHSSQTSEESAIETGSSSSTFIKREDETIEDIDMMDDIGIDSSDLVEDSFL
Chain of Dual specificity mitogen-activated protein kinase kinase 2 (Homo sapiens) (P36507 whole entry): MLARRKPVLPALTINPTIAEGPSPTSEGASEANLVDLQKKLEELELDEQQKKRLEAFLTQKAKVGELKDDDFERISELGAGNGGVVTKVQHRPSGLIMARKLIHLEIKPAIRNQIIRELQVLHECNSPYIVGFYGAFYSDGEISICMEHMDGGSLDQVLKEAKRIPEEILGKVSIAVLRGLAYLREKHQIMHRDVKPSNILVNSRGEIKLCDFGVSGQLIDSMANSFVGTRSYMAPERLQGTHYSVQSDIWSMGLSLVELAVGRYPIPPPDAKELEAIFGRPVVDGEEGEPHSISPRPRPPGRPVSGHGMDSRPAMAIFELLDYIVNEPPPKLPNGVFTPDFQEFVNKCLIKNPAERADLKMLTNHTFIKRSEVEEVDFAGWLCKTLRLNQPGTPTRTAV
Chain of Proto-oncogene tyrosine-protein kinase Src (Homo sapiens) (P12931 2-536 limits assumed): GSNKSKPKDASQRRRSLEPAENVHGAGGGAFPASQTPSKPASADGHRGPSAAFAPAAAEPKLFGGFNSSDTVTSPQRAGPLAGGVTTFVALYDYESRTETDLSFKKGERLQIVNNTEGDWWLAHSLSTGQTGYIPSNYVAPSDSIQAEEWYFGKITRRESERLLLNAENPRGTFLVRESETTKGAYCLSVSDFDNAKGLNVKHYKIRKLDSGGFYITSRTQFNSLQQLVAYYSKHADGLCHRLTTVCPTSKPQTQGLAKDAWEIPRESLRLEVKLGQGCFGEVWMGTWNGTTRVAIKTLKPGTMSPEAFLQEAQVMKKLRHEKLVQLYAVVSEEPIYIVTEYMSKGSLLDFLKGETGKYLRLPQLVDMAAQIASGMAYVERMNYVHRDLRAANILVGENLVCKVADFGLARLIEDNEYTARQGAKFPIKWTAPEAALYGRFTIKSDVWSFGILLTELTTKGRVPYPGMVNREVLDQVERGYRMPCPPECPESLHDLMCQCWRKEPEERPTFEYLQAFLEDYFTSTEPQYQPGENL
Chain of Mitogen-activated protein kinase 12 (Homo sapiens) (P53778 whole entry): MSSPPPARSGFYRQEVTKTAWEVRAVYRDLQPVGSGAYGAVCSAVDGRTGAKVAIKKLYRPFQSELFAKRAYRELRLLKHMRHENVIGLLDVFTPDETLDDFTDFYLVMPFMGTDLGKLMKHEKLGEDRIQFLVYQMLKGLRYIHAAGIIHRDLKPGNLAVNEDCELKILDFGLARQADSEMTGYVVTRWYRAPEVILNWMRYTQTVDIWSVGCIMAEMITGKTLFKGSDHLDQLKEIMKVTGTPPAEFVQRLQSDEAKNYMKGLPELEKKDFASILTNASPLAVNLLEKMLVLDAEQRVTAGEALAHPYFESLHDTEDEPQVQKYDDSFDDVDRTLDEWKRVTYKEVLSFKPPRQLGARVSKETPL
Chain of Mitogen-activated protein kinase 11 (Homo sapiens) (Q15759 whole entry): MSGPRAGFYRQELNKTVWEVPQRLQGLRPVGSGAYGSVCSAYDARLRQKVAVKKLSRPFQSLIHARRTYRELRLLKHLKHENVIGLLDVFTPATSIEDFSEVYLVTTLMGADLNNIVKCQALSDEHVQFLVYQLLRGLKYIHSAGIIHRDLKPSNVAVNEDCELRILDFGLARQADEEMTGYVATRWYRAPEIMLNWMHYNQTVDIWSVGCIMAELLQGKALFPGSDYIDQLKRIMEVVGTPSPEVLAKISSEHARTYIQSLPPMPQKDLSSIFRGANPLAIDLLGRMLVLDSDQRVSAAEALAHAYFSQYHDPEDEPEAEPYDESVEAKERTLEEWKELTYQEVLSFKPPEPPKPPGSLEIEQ
Chain of Bone morphogenetic protein receptor type-2 (Q13873 whole entry): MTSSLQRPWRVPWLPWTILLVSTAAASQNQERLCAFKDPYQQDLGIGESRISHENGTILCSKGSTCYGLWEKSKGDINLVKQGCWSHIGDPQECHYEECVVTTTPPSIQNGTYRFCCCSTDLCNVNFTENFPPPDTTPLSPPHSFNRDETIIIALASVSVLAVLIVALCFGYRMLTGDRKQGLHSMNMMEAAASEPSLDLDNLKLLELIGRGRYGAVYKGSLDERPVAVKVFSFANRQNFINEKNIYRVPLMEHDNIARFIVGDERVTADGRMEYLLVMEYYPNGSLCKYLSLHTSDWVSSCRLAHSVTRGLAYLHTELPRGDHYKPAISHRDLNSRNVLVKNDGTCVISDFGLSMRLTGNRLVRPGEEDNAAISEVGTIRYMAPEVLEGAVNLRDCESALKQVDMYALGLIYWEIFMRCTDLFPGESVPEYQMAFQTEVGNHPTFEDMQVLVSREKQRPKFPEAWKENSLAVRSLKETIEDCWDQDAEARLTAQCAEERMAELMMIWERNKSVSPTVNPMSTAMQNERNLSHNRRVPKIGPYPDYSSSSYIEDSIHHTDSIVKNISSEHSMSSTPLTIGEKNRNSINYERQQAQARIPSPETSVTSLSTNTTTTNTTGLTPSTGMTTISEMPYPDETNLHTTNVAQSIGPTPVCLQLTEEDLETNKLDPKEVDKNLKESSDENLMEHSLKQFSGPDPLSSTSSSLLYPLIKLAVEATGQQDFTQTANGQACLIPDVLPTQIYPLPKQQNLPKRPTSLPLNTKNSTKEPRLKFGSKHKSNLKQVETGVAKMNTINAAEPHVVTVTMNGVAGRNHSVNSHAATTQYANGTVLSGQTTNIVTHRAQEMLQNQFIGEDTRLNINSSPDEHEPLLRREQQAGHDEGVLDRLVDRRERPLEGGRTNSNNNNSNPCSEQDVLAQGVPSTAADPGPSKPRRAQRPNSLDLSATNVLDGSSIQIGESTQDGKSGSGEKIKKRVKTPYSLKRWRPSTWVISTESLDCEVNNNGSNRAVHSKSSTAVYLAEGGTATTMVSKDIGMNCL
Chain of TGF-beta receptor type-2 (P37173 whole entry): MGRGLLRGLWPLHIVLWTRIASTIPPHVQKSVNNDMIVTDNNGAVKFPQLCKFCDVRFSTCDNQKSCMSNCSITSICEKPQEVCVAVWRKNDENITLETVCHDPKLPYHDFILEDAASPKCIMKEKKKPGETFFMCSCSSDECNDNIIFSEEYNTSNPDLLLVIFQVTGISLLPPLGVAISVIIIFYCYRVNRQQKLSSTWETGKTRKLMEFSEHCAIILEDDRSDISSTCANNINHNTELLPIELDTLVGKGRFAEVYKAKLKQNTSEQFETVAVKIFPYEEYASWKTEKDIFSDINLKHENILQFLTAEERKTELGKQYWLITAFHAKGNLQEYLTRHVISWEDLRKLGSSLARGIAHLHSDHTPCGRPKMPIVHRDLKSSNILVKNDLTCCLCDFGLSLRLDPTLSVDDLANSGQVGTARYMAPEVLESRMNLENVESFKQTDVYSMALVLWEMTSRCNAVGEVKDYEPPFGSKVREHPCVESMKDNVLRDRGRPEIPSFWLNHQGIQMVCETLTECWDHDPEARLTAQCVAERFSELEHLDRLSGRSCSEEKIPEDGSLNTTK

Row | residual activity [1] [%] | residual activity [2] [%] | residual activity [3] [%] | residual activity [4] [%] | residual activity [5] [%] | residual activity [6] [%] | IC50 (TGF-beta receptor type-2) [nM] | residual activity [7] [%] | residual activity [8] [%] | IC50 [9] [nM] | IC50 [10] [nM] | EC50 (TGF-beta receptor type-1 [11]) [nM] | IC50 (TGF-beta receptor type-1 [12]) [nM] | Structure (SMILES) | IC50 (HaCaT) [nM]
1 | 108 | 102 | 86 | 96 | 93 | 123 | 19000 | 108 | 98 | > 50000 | 890 | 105 |  | CCN(C)C(=O)c1ccc2c(c1)NC(=O)/C2=C(\Nc1ccc(CN2CCCCC2)cc1)c1ccccc1 | > 1000
2 | 17 | 75 |  | 39 |  | 20 |  |  |  |  |  |  | 3460 | O=C1Nc2ccccc2/C1=C(/Nc1ccc(CN2CCCCC2)cc1)c1ccccc1 | 
3 | 95 | 94 |  | 81 | 91 | 68 |  | 99 | 100 |  |  | 198 | 186 | CN(C)C(=O)c1ccc2c(c1)/C(=C(/Nc1ccc(CN3CCCCC3)cc1)c1ccccc1)C(=O)N2 | > 1000
4 | 90 | 97 | 61 | 72 |  | 106 |  | 86 |  |  | 1100 | 160 | 32 | CCNCc1ccc(N/C(=C2\C(=O)Nc3cc(C(=O)N(C)CC)ccc32)c2ccccc2)cc1 | > 1000
5 | 102 |  | 86 | 98 |  | 124 |  |  |  |  | 99 | 185 | 19 | CCNC(=O)c1ccc2c(c1)NC(=O)/C2=C(\Nc1ccc(CN(C)C)cc1)c1ccccc1 | > 1000
6 | 100 |  |  | 70 |  | 107 |  |  |  |  | 74 | 108 | 1 | CCNC(=O)c1ccc2c(c1)NC(=O)/C2=C(\Nc1ccc(N(CCN(C)C)S(C)(=O)=O)cc1)c1ccccc1 | 
